Assay results taken from patent publication US5629285A, “Inhibitors of TNF-α secretion” (Immunex Corporation, priority 1996, dated 1997).
Each block holds one compound with its values, some of them ahead of it.

Tests used:
TNF-α secretion = test: Inhibition of TNF-α release by anti-CD3 + PMA stimulated peripheral blood T-cells (ELISA); type: cell-based, human; set-up: key to TNF-α (pg/ml), 3 Hrs.: .dagger.: undetectable
Procedure: (§1) Human peripheral blood T-cells were purified from peripheral blood mononuclear cells by rosetting with 2-aminoethylisothiouronium bromide hydrobromide-treated sheep erythrocytes. After hypotonic lysis of sheep erythrocytes, monocytes were depleted by plastic adherence for one hour at 37° C. The peripheral […] T-cells were stimulated with anti-CD3 antibody (OKT3) which was immobilized on the culture wells at 10 μg/ml in PBS plus […] of the phorbol ester, PMA. Culture medium comprised RPMI 1640 medium containing 10% fetal bovine serum, 50 U/ml penicillin, and 50 μg/ml streptomycin. The stimulation was performed in the presence or absence of the inhibitor Compound 1 (200 μM), and TNF-α in the medium was assayed by ELISA.

TNF-β secretion = test: TNF-β production by anti-CD3 + PMA stimulated peripheral blood T-cells; type: cell-based, human; set-up: key to TNF-β (pg/ml), 3 Hrs.: .dagger.: undetectable
Procedure: [The source words this procedure for another target and reports this target under the same test.] as §1

IFN-γ secretion = test: IFN-γ production by anti-CD3 + PMA stimulated peripheral blood T-cells; type: cell-based, human
Procedure: [The source words this procedure for another target and reports this target under the same test.] as §1

cell surface TNF-α = test: Cell surface TNF-α on PMA + ionomycin-stimulated human T-cell clone PL-1 (TNFR:Fc staining, FACS); type: cell-based
Procedure: (§2) Detection of cell surface TNF-α was performed by staining with an Fc fusion protein consisting of an Fc portion of a human IgG1 molecule (IgGFc) coupled with an extracellular domain of TNF receptor (p80). Detection of cell surface ligands for 41BB and CD40 was performed by staining with analogous Fc fusion proteins consisting of IgGFc and extracellular domains of 41BB and CD40, respectively. […] TNFR:Fc and IL-4R:Fc fusion proteins are described in EP 0 464 533, incorporated herein by reference. The same general procedures used to construct the TNFR:Fc and IL-4R:Fc fusion molecules were utilized in the construction of the 41BB:Fc and CD40:Fc molecules. Fc fusion proteins bound to their respective cell-surface ligands were then detected with a biotinylated anti-human IgG1 followed by streptavidin-phycoerythrin. The intensity of staining was measured by a FACS (fluorescence activated cell sorting) scan flow cytometer.

41BBL = test: Cell surface 41BBL on PMA + ionomycin-stimulated human T-cell clone PL-1 (41BB:Fc staining, FACS); type: cell-based
Procedure: as §2

CD40L = test: Cell surface CD40L on PMA + ionomycin-stimulated human T-cell clone PL-1 (CD40:Fc staining, FACS); type: cell-based
Procedure: as §2

IL-4 = test: Cell surface IL-4 on PMA + ionomycin-stimulated human T-cell clone PL-1 (IL-4R:Fc staining, negative control); type: cell-based; details: + Compound 1 (10 without)
Procedure: as §2

serum TNF-α [1] = test: In vivo inhibition of TACE: LPS-induced serum TNF levels, 500 μg compound s.c.; set-up: species or system Balb/c mice; details: for Serum TNF-α level: 500 μg s.c. with 400 μg LPS i.v., serum 2 hours after LPS, pooled from two mice, Saline/DMSO control 157
Procedure: Female Balb/c mice (18-20 g) were injected i.v. with 400 μg of LPS. Simultaneously, the mice were injected subcutaneously with 500 μg of Compound A or Compound 1 in 0.5 ml of saline containing 0.02% DMSO. Control mice received LPS intravenously and saline/DMSO subcutaneously. Two hours following the LPS injection, serum was obtained and pooled from two mice in each treatment group.
In a similar manner to the procedure described above, mice were injected i.v. with 400 μg LPS. Simultaneously, the mice were injected subcutaneously with 500 μg Compound 1 in 0.5 ml saline containing 0.02% DMSO. Two hours later, serum was obtained and pooled. TNF-α levels were determined by ELISA.

serum TNF-α [2] = test: In vivo inhibition of TACE: LPS-induced serum TNF levels, 250 μg compound s.c.; set-up: species or system Balb/c mice; details: 2 hours; for serum TNF-α, mean optical density (OD) in the ELISA: 250 μg s.c. in saline/DMSO with 450 μg LPS i.v., three mice, LPS + Saline + DMSO 0.268 ± 0.040, background OD 0.162±0.003; for effect on serum TNF-α levels in LPS-stimulated mice: 250 μg s.c., 450 μg LPS i.v.
Procedure: Female Balb/c mice (18-20 g) were injected i.v. with 450 μg of LPS. Simultaneously, the mice were injected subcutaneously with 250 μg of Compound A or Compound 1 in 0.25 ml of saline containing 0.02% DMSO. Control mice received LPS intravenously and saline/DMSO subcutaneously. Two hours following the LPS injection, serum was obtained from three mice in each treatment group. TNF-α levels were determined by ELISA. The results are expressed as the mean optical density (OD) obtained in the ELISA from each treatment group, and are shown in Table V. The background OD of the control sample was 0.162±0.003.

purified TACE = purified TACE (Homo sapiens, UniProt P78536); test: Serum stability in normal mouse serum, read out as inhibitory efficacy against purified TACE; type: in vitro ADME; details: 50 μM in normal mouse serum, 37° C., after 40 minutes
Sequence of purified TACE (P78536 215-824): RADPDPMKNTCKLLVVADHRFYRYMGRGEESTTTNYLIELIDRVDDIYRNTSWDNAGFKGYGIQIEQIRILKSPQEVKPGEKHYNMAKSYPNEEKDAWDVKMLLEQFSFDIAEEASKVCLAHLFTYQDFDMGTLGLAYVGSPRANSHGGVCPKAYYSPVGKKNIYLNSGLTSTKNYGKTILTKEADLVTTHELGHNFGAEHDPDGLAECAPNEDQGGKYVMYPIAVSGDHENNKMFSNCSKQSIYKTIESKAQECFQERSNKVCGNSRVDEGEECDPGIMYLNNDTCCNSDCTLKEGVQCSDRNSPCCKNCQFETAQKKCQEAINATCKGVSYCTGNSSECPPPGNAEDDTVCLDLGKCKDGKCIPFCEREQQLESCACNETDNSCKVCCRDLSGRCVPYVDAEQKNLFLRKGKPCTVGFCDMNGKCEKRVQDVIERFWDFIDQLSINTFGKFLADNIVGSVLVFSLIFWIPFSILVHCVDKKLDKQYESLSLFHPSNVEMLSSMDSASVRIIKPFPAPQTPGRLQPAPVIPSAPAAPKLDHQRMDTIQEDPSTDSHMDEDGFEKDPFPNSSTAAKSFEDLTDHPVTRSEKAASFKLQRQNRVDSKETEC
Procedure: Each of Compound 1 and Compound A was diluted to 50 μM in normal mouse serum and incubated at 37° C. At various times, aliquots were withdrawn, diluted 100-fold into ice-cold PBS, and tested for inhibitory, efficacy against purified TACE.

[3] = with Compound 1 200 μM, 24 Hrs.
[4] = with Compound 1 200 μM, 48 Hrs.

- decrease in inhibitory effect against purified TACE, as loss in concentration of the compound (purified TACE): no decrease
Structure (SMILES): CC(C)CC(CC(=O)NO)C(=O)N[C@@H](Cc1ccc2ccccc2c1)C(=O)N[C@@H](C)C(=O)NCCN (stereo partly drawn) [Compound 1, N-{D,L-2-(hydroxyaminocarbonyl)methyl-4-methylpentanoyl}-L-3-(2'-naphthyl) alanyl-L-alanine, 2-aminoethyl amide]
- inhibition of TNF-α release (TNF-α secretion; 200 μM, 48 hours): 63%
- TNF-α in the medium (TNF-α secretion; 200 μM, after 3 hours, 100 pg/ml without compound): no detectable
- TNF-α (pg/ml), 3 Hrs. (TNF-α secretion; with Compound 1 200 μM, medium of stimulated peripheral blood T cells, 3 Hrs.): .dagger.
- TNF-α (pg/ml), 24 Hrs. (TNF-α secretion; with Compound 1 200 μM, medium of stimulated peripheral blood T cells, 24 Hrs.): 100 pg/mL
- TNF-α (pg/ml), 48 Hrs. (TNF-α secretion; with Compound 1 200 μM, medium of stimulated peripheral blood T cells, 48 Hrs.): 300 pg/mL
- inhibitory effect on the release of TNF-β (TNF-β secretion; 200 μM, 24 and 48 hours): no inhibitory effect
- TNF-β (pg/ml), 3 Hrs. (TNF-β secretion; with Compound 1 200 μM, 3 Hrs.): .dagger.
- TNF-β (pg/ml), 24 Hrs. (TNF-β secretion; [3]): 160 pg/mL
- TNF-β (pg/ml), 48 Hrs. (TNF-β secretion; [4]): 1050 pg/mL
- inhibitory effect on the release of interferon-γ (IFN-γ secretion; 200 μM, 24 and 48 hours): no inhibitory effect
- IFN-γ (ELISA OD), 3 Hrs. (IFN-γ secretion; with Compound 1 200 μM, 3 Hrs.): 0.2 ELISA OD
- IFN-γ (ELISA OD), 24 Hrs. (IFN-γ secretion; [3]): 0.9 ELISA OD
- IFN-γ (ELISA OD), 48 Hrs. (IFN-γ secretion; [4]): 1.08 ELISA OD
- cell surface TNF-α (MFI) (cell surface TNF-α; 4h after stimulation, + Compound 1 (83 without)): 3040 MFI, arbitrary units
- cell surface TNF-α (MFI) (cell surface TNF-α; 18h after stimulation, + Compound 1 (7 without)): 616 MFI, arbitrary units
- increase in TNFR:Fc binding (cell surface TNF-α; 18 hours of stimulation, presence vs absence of Compound 1): 100 fold
- cell surface 41BBL (MFI) (41BBL; 4h after stimulation, + Compound 1 (428 without)): 344 MFI, arbitrary units
- cell surface 41BBL (MFI) (41BBL; 18h after stimulation, + Compound 1 (5 without)): 9 MFI, arbitrary units
- enhancement of 41BB:Fc binding (41BBL; 18 hours of stimulation): approximately 2 fold
- increase on 41BB:Fc binding (41BBL; four hours of stimulation): no increase
- cell surface CD40L (MFI) (CD40L; 4h after stimulation, + Compound 1 (107 without)): 107 MFI, arbitrary units
- cell surface CD40L (MFI) (CD40L; 18h after stimulation, + Compound 1 (19 without)): 46 MFI, arbitrary units
- enhancement of CD40:Fc binding (CD40L; 18 hours of stimulation): approximately 2 fold
- increase on CD40:Fc binding (CD40L; four hours of stimulation): no increase
- cell surface IL-4 (MFI) (IL-4; 4h after stimulation): 10 MFI, arbitrary units
- cell surface IL-4 (MFI) (IL-4; 18h after stimulation): 10 MFI, arbitrary units
- Serum TNF-α level (serum TNF-α [1]): undetectable
- reduction of serum TNF-α levels in a murine model of LPS-induced sepsis syndrome (serum TNF-α [1]; 25 mg/kg, from Tables III and IV): at least 80%
- LPS-induced serum TNF level (serum TNF-α [1]; Experiment No. 1, 500 μg s.c., 400 μg LPS i.v., 2 hours, LPS only 1696, LPS + Saline 1268): 301 pg/mL
- LPS-induced serum TNF level (serum TNF-α [1]; Experiment No. 2, 500 μg s.c., 400 μg LPS i.v., 2 hours, LPS only 2527, LPS + Saline 1768): 269 pg/mL
- LPS-induced serum TNF level (serum TNF-α [1]; Experiment No. 3, 500 μg s.c., 400 μg LPS i.v., 2 hours, LPS only 1833, LPS + Saline 1732): 281 pg/mL
- reduction of serum TNF-α levels as compared to LPS only (serum TNF-α [1]; experiment 1, 500 μg s.c.): 82%
- reduction of serum TNF-α levels as compared to LPS+saline (serum TNF-α [1]; experiment 1, 500 μg s.c.): 76%
- reduction of serum TNF-α levels as compared to LPS only (serum TNF-α [1]; experiment 2, 500 μg s.c.): 89%
- reduction of serum TNF-α levels as compared to LPS+saline (serum TNF-α [1]; experiment 2, 500 μg s.c.): 85%
- reduction of serum TNF-α levels as compared to LPS only (serum TNF-α [1]; experiment 3, 500 μg s.c.): 85%
- reduction of serum TNF-α levels as compared to LPS+saline (serum TNF-α [1]; experiment 3, 500 μg s.c.): 84%
- overall reduction of serum TNF-α levels as compared to LPS only (serum TNF-α [1]; experiments 1-3, 500 μg s.c.): 85.4±2.98%
- serum TNF-α, mean optical density (OD) in the ELISA (serum TNF-α [2]): 0.147 ± 0.004 OD
- effect on serum TNF-α levels in LPS-stimulated mice (serum TNF-α [2]): complete inhibition

- decrease in inhibitory effect against purified TACE, as loss in concentration of the compound (purified TACE): 3-4 fold
Structure (SMILES): CC(C)CC(CC(=O)NO)C(=O)N[C@@H](Cc1ccc2ccccc2c1)C(=O)N[C@@H](C)C(N)=O (stereo partly drawn) [Compound A, N-{D,L-2-(hydroxyaminocarbonyl)methyl-4-methylpentanoyl}L-3-(2'naphthyl)-a lanyl-L-alanine amide, reference compound]
- Serum TNF-α level (serum TNF-α [1]): 65 pg/mL
- reduction of serum TNF-α levels as compared to the saline/DMSO control (serum TNF-α [1]; 500 μg s.c., 400 μg LPS i.v., 2 hours): approximately 60%
- serum TNF-α, mean optical density (OD) in the ELISA (serum TNF-α [2]): 0.299 ± 0.023 OD
- effect on serum TNF-α levels in LPS-stimulated mice (serum TNF-α [2]): no effect
